According to PubChem BioAssay (NCI):
Where “and” joins values, the source holds several entries; their conditions need not be identical. Equal entries are not always repeated.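 The compound was tested at five concentrations on cells cultured in 96-well plates, with a 48-hour exposure period. The concentration for 50% growth inhibition is given as GI50. TGI: total growth inhibition.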

Key:
Assay in all cases: growth of human tumour cells (NCI), 48 h
SW-620 colon = tested on: SW-620 colon
KM12 colon = tested on: KM12 colon
HCT-116 colon = tested on: HCT-116 colon
U251 CNS = tested on: U251 CNS
HS 578T breast = tested on: HS 578T breast
NCI-H460 lung = tested on: NCI-H460 lung
EKVX NSCLC = tested on: EKVX NSCLC
HL-60(TB) leukemia = tested on: HL-60(TB) leukemia
MOLT-4 leukemia = tested on: MOLT-4 leukemia
SR leukemia = tested on: SR leukemia

Structure (SMILES)	TGI (SW-620 colon) [µM]	TGI (KM12 colon) [µM]	TGI (HCT-116 colon) [µM]	TGI (U251 CNS)	TGI (HS 578T breast) [µM]	TGI (NCI-H460 lung)	TGI (EKVX NSCLC) [µM]	TGI (HL-60(TB) leukemia)	TGI (MOLT-4 leukemia) [µM]	GI50 (SW-620 colon) [µM]	GI50 (HCT-116 colon) [µM]	GI50 (U251 CNS) [µM]	GI50 (HS 578T breast) [µM]	GI50 (SR leukemia) [µM]	TGI (SR leukemia) [µM]	GI50 (HL-60(TB) leukemia) [µM]	GI50 (KM12 colon) [µM]	GI50 (NCI-H460 lung) [µM]	GI50 (EKVX NSCLC)	GI50 (MOLT-4 leukemia) [µM]
Clc1ccc2c(NCCNc3ccnc4cc(Cl)ccc34)ccnc2c1	31.3	32.5	33.1	32.1 µM	> 100	27 µM	41.4	31 µM	35.3	–	–	–	–	–	–	–	–	–	–	–
COc1ccc(Cl)cc1NC(=O)c1c(NC(=O)C(F)(F)C(F)(F)F)sc2c1CCCCC2	> 100	–	5.67	> 100 µM	7.54	–	–	6.63 µM	–	1.93	1.3	1.89	1.37	1.23	> 100	2.13	–	–	–	–
COc1ccc(CCCC(=O)O)c(C)c1	> 100	> 100	> 100	60.8 µM	> 100	> 100 µM	> 100	> 100 µM	> 100	–	–	–	–	–	> 100	–	–	–	–	–
COc1cccc2c1C(=O)c1c(O)c3c(c(O)c1C2=O)C[C@@](O)(/C(C)=N/NC(=O)c1ccccc1)C[C@@H]3OC1CC(N)C(O)C(C)O1 (some centres undefined)	4.89	6.64	10.2	7.18 µM	1.82	3.55 µM	3.02	0.771 µM	0.681	–	–	–	–	–	0.845	–	–	–	–	–
COC(=O)c1cc2c3c(cc(O)c2[nH]1)N(C(=O)C1Cc2cc(OC)c(OC)c(OC)c2N1)CC3CCl (centres undefined)	0.132	0.0142	–	0.0109 µM	–	0.175 µM	< 0.01	0.0102 µM	0.132	< 0.01	–	< 0.01	–	< 0.01	> 100	< 0.01	< 0.01	< 0.01	< 0.01 µM	< 0.01
Nc1nc(N)c2nc(-c3ccco3)cnc2n1	–	> 100	> 100	> 100 µM	–	> 100 µM	> 100	89.6 µM	> 100	–	–	–	–	–	> 100	–	–	–	–	–
CC[C@@]1(O)C(=O)OCc2c1cc1n(c2=O)Cc2c-1nc1ccccc1c2/C=N\NC(=O)C(N)Cc1cnc[nH]1 (some centres undefined)	> 100	> 28.7	> 41.4	5.03 µM	> 100	4.8 µM	> 100	–	0.243	–	–	–	–	–	0.387	–	–	–	–	–
COc1cc2cc(C(=O)N3CC(CCl)c4c3cc(N(C)C)c3ccccc43)[nH]c2c(OC)c1OC (centres undefined)	> 100	1.09	> 100	4.66 µM	0.135	–	0.0245	–	0.0608	–	–	–	–	–	< 0.01	–	–	–	–	–
CCOC(=O)c1c(C)[nH]c(/C=C2\N=C(c3ccc[nH]3)C=C2OC)c1C	1.33	1.32	–	1.59 µM	0.925	–	3.81	0.442 µM	3.09	< 0.01	< 0.0107	0.052	0.0577	–	–	0.0232	0.015	–	0.469 µM	< 0.012
O=C1C=C(N2CC2)C(=O)C=C1N1CC1	0.848	2.22	–	0.284 µM and 1.49 µM	8.14	0.2 µM and 0.781 µM	4.84	0.51 µM and 0.197 µM	0.248	0.0147	–	0.0233	–	0.0266	0.302	0.00233	0.242	0.00521	0.404 µM and 2.65 µM	0.00197
